Experimental data published in PubChem BioAssay (NCI).
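Assay format: 96-well plates, 48-hour exposure. GI50 = concentration required for 50% inhibition of growth. The concentration for full growth arrest is given as TGI.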

What was measured:
Experiment in all cases: NCI tumour cell line growth inhibition, 48 h
MDA-MB-231 breast = tested on: MDA-MB-231 breast
UO-31 renal = tested on: UO-31 renal
SK-MEL-2 melanoma = tested on: SK-MEL-2 melanoma
EKVX NSCLC = tested on: EKVX NSCLC
U251 CNS = tested on: U251 CNS
SK-MEL-28 melanoma = tested on: SK-MEL-28 melanoma
HS 578T breast = tested on: HS 578T breast
NCI-H522 lung = tested on: NCI-H522 lung
LOX IMVI melanoma = tested on: LOX IMVI melanoma
NCI-H460 lung = tested on: NCI-H460 lung

SMILES	TGI (MDA-MB-231 breast) [µM]	TGI (UO-31 renal) [µM]	TGI (SK-MEL-2 melanoma) [µM]	TGI (EKVX NSCLC) [µM]	TGI (U251 CNS) [µM]	TGI (SK-MEL-28 melanoma) [µM]	TGI (HS 578T breast) [µM]	TGI (NCI-H522 lung) [µM]	TGI (LOX IMVI melanoma) [µM]	TGI (NCI-H460 lung) [µM]	GI50 (MDA-MB-231 breast) [µM]	GI50 (UO-31 renal) [µM]	GI50 (SK-MEL-2 melanoma) [µM]	GI50 (EKVX NSCLC) [µM]	GI50 (U251 CNS) [µM]	GI50 (NCI-H460 lung) [µM]	GI50 (SK-MEL-28 melanoma) [µM]	GI50 (HS 578T breast) [µM]	GI50 (NCI-H522 lung) [µM]	GI50 (LOX IMVI melanoma) [µM]
CC(NC(=O)C1(N)CCCC1)C(=O)O (stereo unspecified)	> 100	> 100	> 100	> 100	> 100	> 100	> 100	> 100	> 100	–	–	–	–	–	–	–	–	–	–	–
COc1ccc(/C=C/c2cnnc3ccccc23)cc1OC	> 10	–	> 10	> 10	> 10	> 10	> 10	> 10	> 10	> 10	–	–	–	–	–	–	–	–	–	–
COC(=O)/C=C/c1cc(OC)c2c(c1)[C@@H](C(=O)OC)[C@H](c1ccc(OC)c(OC)c1)O2	> 100	> 100	> 100	> 100	> 100	> 100	> 100	> 100	> 100	> 100	7.39	3.4	2.8	4.62	1.38	3.9	26.4	1.7	1.44	0.771
N=C(N)c1ccc(-c2ccc(-c3ccccc3)o2)o1	4.9	3.13	4.2	9.37	5.12	4.41	21.2	3.89	3.34	5.82	2.04	1.54	2.25	2.34	2.22	2.45	1.9	3.81	1.94	1.7
c1ccc(Oc2cnc3ccccc3n2)cc1	> 100	> 100	> 100	> 100	> 100	> 100	> 100	> 100	> 100	> 100	> 100	39.1	> 100	77.4	> 100	> 100	> 100	30.3	> 100	> 100
CC(=O)SC(C[N+](=O)[O-])c1ccccc1 (stereo unspecified)	27	5.37	50.3	16	13.1	11.1	23.4	31	3.34	24.8	–	–	–	–	–	–	–	–	–	–
Nc1ncnc2c1c(-c1ccc(Oc3ccccc3)cc1)nn2C[C@H]1SSC[C@H]1O	3.71	2.77	0.435	1.73	4.27	0.0793	8.7	3.16	0.523	0.0565	1.33	0.468	0.16	0.309	1.2	0.0233	0.0258	1.88	0.953	0.0703
COc1ccc(S(=O)(=O)Nc2c(/C=C\c3cc(OC)c(OC)c(OC)c3)ccc(OC)c2O)cc1OC	> 100	> 100	> 100	> 100	> 100	> 100	> 100	> 100	> 100	> 100	0.338	0.864	2.05	0.452	0.365	0.283	1.74	0.251	0.0776	0.294
O=C(/C=C/c1ccco1)c1cccc(Nc2nc(Nc3ccccc3)nc(Nc3ccccc3)n2)c1	> 100	> 69.6	> 100	> 100	> 100	> 100	> 82.7	> 100	> 100	> 27.1	5.4	3.97	20.5	9.82	16	1.4	23.7	12.6	44.6	17.9
CCc1cc(Cc2cc(CC)cc(C(C)(C)C)c2O)c(O)c(C(C)(C)C)c1	3.92	11.7	7.08	6.77	11	7.53	8.29	8.29	12	6.98	1.87	2.79	2.63	2.24	3.13	2.59	2.39	2.59	2.38	3.27
CCCCCCOc1ccc(/C=N/Nc2cc(C)nc3ccc(Br)cc23)cc1	3.08	2.89	3.32	3.14	3.36	3.24	4.49	3.32	2.9	3.88	1.62	1.53	1.78	1.72	1.87	1.94	1.81	2.16	1.7	1.53
CCOc1ccc(-n2cc(-c3ccc(N(C)C)cc3)[n+]3c2CCCCC3)cc1	> 27.8	68.5	6.32	> 100	> 100	> 81.9	> 100	3.91	> 65.6	> 38	1.93	4.94	0.286	0.244	0.312	0.349	0.841	3.33	0.125	0.359
COc1ccc(-c2nn(C(=O)c3cc(OC)c(OC)c(OC)c3)c3cc(N)ccc23)cc1	12.9	5.05	27.6	51.3	1.87	24.3	39	1.12	5.54	1.74	0.0133	< 0.0196	2.55	< 0.0187	< 0.01	< 0.0112	1.76	< 0.0179	< 0.01	< 0.01
c1ccc2c(c1)-c1nc3ccccc3cc1C2N1CCOCC1 (stereo unspecified)	> 100	–	> 100	> 100	> 100	> 100	> 100	> 100	> 100	–	–	–	–	–	–	–	–	–	–	–
